# Assay results: ChEMBL document CHEMBL1201862, “PubChem BioAssay data set” (2004)
# Calls of active or inactive are those of the source. Rule as the data show it, for most assays here: actives have a measured EC50 and inactives only a lower limit.
# Key:
# [1] = target: T1, Corticotropin-releasing factor receptor 2/Corticotropin-releasing factor-binding protein (Homo sapiens, UniProt P24387+Q13324); assay: Dose Response confirmation of uHTS hits for small molecule antagonists of the CRF-binding protein and CRF-R2 receptor complex.; format: functional; conditions: read-out: IC50_Mean
# T1 sequence (Q13324 whole entry): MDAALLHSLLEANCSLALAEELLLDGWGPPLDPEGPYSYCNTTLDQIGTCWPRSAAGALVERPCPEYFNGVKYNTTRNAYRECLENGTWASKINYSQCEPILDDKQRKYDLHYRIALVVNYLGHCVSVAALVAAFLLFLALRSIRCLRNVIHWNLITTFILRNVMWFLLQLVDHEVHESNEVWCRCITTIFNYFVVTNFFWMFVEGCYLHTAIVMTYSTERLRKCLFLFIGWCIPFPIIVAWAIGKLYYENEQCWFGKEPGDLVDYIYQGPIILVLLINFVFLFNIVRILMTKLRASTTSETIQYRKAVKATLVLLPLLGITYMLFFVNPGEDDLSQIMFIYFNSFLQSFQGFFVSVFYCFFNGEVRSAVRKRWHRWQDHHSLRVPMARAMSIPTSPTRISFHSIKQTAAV
# T1 sequence (P24387 whole entry): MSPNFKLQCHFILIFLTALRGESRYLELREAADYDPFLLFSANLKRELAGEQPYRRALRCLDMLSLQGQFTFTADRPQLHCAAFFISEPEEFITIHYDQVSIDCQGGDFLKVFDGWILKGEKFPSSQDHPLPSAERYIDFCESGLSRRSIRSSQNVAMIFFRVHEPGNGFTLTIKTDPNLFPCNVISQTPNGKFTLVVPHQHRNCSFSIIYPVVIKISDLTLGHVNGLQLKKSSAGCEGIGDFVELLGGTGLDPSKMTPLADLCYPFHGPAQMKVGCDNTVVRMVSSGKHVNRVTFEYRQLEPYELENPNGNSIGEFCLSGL
# [2] = target: T1, Corticotropin-releasing factor receptor 2/Corticotropin-releasing factor-binding protein; assay: activators of CRF receptor 2 with binding protein – uHTS hits, confirmation (AID 602473); format: functional; conditions: read-out: EC50_Mean
# [3] = general mammalian cell viability loss – inhibitor set, cherry-pick, set 2, cytotoxicity control for miR-122 modulator project, dose response (AID 720697); format: functional, cell-based
# [4] = target: Heat shock protein HSP 90-alpha (Homo sapiens, UniProt P07900); format: functional, organism-based
# [5] = NIH3T3 cell viability loss – ATP luminescence, mouse fibroblasts, counter-screen, dose response (AID 2010); format: functional, cell-based;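 also: cells exposed to compound for about 90 hours before reading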
# Streptococcus = assay: GAS UMAA2166 growth inhibition – luminescence, BacTiterGlo, counter-screen for streptokinase expression inhibitor project, dose response (AID 1915); format: functional, organism-based;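 also: potency for reduction of bacterial viability or growth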
# Streptokinase A = target: T2, Streptokinase A (Streptococcus pyogenes serotype M1, UniProt P10520); assay: viability-normalized secreted streptokinase activity reduction – plasminogen activation absorbance, OD405, dose response (AID 1914); format: functional, Streptococcus pyogenes M1 GAS;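 also: secreted streptokinase activity via plasminogen activation per viability signal from cell pellet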
# T2 sequence (P10520 whole entry): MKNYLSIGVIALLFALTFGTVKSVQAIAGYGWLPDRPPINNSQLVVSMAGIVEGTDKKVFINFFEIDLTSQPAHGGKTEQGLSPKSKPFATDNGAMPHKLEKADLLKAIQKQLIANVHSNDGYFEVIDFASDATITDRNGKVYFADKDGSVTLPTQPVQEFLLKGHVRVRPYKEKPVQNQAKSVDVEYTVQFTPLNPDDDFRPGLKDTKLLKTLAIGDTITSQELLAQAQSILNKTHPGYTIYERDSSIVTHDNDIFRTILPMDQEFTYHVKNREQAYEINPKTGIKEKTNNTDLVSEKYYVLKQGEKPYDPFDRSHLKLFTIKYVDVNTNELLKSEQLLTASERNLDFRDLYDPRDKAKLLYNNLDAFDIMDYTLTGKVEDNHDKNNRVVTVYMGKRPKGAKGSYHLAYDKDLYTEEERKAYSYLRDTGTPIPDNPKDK
# [6] = tested on: Streptococcus sp. 'group A'; assay: Streptococcus pyogenes SK(-)GAS viability under kanamycin – luminescence, BacTiterGlo, confirmation, counter-screen for streptokinase expression inhibitor project, dose response (AID 1900); format: functional, organism-based
# [7] = Trypanosoma cruzi growth suppression in host cells – NIH3T3 host cells, beta-gal luminescence, confirmation (AID 2044); format: functional, cell-based;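 also: intracellular parasites grown in NIH/3T3 mouse fibroblasts as host cells; luminescent beta-galactosidase reporter signal from transgenic T. cruzi replicating inside host cells; inhibitors lower the luminescence signal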
# [8] = target: T3, High affinity choline transporter 1 (Homo sapiens, UniProt Q9GZV3); assay: human choline transporter blockers, potency – cell-based, 5-point CRC, membrane potential dye, dose response (AID 504840); format: functional
# T3 sequence (Q9GZV3 whole entry): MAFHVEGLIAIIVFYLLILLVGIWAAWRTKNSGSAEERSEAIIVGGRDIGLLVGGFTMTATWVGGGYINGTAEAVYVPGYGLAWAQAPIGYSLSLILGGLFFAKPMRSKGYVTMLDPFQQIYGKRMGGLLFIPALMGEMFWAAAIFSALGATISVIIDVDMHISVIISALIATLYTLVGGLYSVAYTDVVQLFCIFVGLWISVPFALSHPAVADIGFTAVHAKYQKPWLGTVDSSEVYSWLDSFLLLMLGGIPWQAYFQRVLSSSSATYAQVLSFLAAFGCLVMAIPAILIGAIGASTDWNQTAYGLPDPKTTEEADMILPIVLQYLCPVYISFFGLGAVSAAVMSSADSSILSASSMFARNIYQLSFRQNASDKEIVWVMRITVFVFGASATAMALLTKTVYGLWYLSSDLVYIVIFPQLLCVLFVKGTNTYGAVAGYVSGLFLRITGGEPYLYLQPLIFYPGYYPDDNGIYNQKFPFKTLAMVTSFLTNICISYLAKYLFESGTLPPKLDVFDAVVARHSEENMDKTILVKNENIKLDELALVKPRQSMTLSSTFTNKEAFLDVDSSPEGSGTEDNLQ
# BJ [9] = assay: BJ-TERT-LT-ST fibroblast viability loss – cell-based, RAS-independent, luminescence, dose response (AID 1935); format: functional; conditions: Homo sapiens;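 also: BJ fibroblasts immortalized with TERT plus LT and ST oncogenes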
# BJ [10] = assay: BJ-TERT fibroblast viability loss – cell-based, RAS-independent, luminescence, dose response (AID 1933); format: functional; conditions: Homo sapiens
# [11] = DRD fibroblast viability loss – cell-based, non-viral oncogenic, luminescence, dose response (AID 1934); format: functional; conditions: Homo sapiens
# BJ [12] = assay: cells; format: functional, cell-based; conditions: Homo sapiens
structure (smiles),measurement,setting,value
CCCC1CC(C#N)N(N(C)C)C1=C(C#N)C#N (centres undefined),IC50,[1],> 47.1 µM (inactive)
same,EC50,[2],> 53 µM (inactive)
CNc1nc(NCC2CCCCC2)c2sccc2n1,AC50,[3],3.63 µM (active)
Cc1ccc(C(=O)C(SC(C)(C)C)n2cncn2)cc1 (centres undefined),AC50,[4],3.99 µM (active)
CCC(C)NC(=O)Cn1cnc2sc(C)c(S(=O)(=O)N3CCCCC3)c2c1=O (centres undefined),IC50,[1],> 47.1 µM (inactive)
same,EC50,[2],> 53 µM (inactive)
Cc1nn2c(NCc3ccccn3)cc(C(C)(C)C)nc2c1-c1ccccc1,AC50,[4],1.78 µM (active)
same,EC50,[5],> 60 µM (not active)
same,EC50,Streptococcus,5.79 µM (active)
same,EC50,Streptokinase A,> 150 µM (not active)
same,EC50,[6],3.41 µM (active)
same,EC50,[7],2.21 µM (active)
Cc1ccc(NC(=O)c2ncn(CCCNCC3CCCO3)n2)cc1C (centres undefined),IC50,[1],> 47.1 µM (inactive)
same,EC50,[2],> 53 µM (inactive)
CCc1cc([N+](=O)[O-])cc(CC)c1N,IC50,[8],13.8 µM (active)
CCc1nnc(NC(=O)CSc2nnnn2-c2cccc(C(C)=O)c2)s1,IC50,[1],> 47.1 µM (inactive)
same,EC50,[2],> 53 µM (inactive)
CCOC(=O)C1CN(S(=O)(=O)c2ccccc2)CCN1S(=O)(=O)c1ccccc1 (centres undefined),AC50,[3],1.54 µM (active)
O=[N+]([O-])c1cccc(CSc2nnc3ccccn23)c1,IC50,[8],16.6 µM (active)
N#CC1=C2SCC(O)(c3ccccc3)N2C(=O)CC1c1ccccc1 (centres undefined),EC50,BJ [9],3.28 µM (active)
same,EC50,BJ [10],4.26 µM (active)
same,EC50,[11],3.01 µM (active)
same,EC50,BJ [12],51.4 µM (active)
CCOC(=O)c1ccc(NC(=O)C(=O)NCc2ccco2)cc1,EC50,BJ [9],> 150 µM (not active)
same,EC50,BJ [10],> 150 µM (not active)
same,EC50,[11],> 150 µM (not active)
same,EC50,BJ [12],> 150 µM (not active)
COc1ccccc1/C=C/C(=O)N1CCOCC1,IC50,[1],> 47.1 µM (inactive)
same,EC50,[2],> 53 µM (inactive)
